Measured values taken from PMC8213057, “Targeting ALK2: An Open Science Approach to Developing Therapeutics for the Treatment of Diffuse Intrinsic Pontine Glioma” (Journal of Medicinal Chemistry, 2020).

How the values were obtained:
CDK6/cyclin D3 = CDK6/cyclin D3 (Homo sapiens, UniProt Q00534); settings: 1 μM; Run 1, Run 2
LIMK2 = LIMK2 (Homo sapiens, UniProt P53671); settings: 1 μM; Run 1, Run 2
MNK1 = MNK1 (Homo sapiens, UniProt Q9BUB5); settings: 1 μM; Run 1, Run 2
MST4 = MST4 (Homo sapiens, UniProt Q9P289); settings: 1 μM; Run 1, Run 2
PKG1a = target: T1, PKG1a (Homo sapiens, UniProt Q13976); settings: 1 μM; Run 1, Run 2
T1 sequence (Q13976 1-671): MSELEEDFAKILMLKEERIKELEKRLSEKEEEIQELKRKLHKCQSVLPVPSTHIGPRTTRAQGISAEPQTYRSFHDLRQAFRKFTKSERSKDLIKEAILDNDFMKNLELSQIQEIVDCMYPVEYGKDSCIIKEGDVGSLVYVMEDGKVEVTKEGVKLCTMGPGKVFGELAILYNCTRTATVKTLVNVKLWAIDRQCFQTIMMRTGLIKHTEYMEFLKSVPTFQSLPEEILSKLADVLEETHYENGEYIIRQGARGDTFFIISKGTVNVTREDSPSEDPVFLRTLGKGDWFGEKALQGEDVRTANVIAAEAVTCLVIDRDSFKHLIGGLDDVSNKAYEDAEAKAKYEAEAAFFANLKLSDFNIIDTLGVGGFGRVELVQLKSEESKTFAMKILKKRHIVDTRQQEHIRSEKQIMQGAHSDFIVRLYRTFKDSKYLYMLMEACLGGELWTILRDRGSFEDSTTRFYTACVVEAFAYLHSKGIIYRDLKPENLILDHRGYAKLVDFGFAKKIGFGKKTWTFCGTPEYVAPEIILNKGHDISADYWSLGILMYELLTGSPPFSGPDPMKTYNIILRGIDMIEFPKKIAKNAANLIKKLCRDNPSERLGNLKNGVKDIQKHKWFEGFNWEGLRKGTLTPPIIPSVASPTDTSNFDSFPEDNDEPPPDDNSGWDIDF

PRKX = target: T2, PRKX (Homo sapiens, UniProt P51817); settings: 1 μM; Run 1, Run 2
T2 sequence (P51817 1-358): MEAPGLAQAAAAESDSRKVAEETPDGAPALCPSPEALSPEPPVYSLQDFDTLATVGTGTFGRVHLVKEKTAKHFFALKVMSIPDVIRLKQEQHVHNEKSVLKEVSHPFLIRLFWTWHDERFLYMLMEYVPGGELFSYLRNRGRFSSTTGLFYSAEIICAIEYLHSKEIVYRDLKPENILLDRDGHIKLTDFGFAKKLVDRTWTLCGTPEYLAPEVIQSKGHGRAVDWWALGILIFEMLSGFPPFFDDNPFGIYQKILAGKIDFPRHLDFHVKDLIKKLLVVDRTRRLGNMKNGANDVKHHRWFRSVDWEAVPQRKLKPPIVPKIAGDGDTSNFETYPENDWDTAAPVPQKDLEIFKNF

STK38/NDR1 = STK38/NDR1 (Homo sapiens, UniProt Q15208); settings: 1 μM; Run 1, Run 2
CAMK1a = CAMK1a (Homo sapiens, UniProt Q14012); assay: biochemical; settings: read-out: % enzyme activity, 1 μM; Run 1, Run 2
CLK1 = CLK1 (Homo sapiens, UniProt P49759); assay: biochemical; settings: read-out: % enzyme activity, 1 μM; Run 1, Run 2
FES/FPS = FES/FPS (Homo sapiens, UniProt P07332); assay: biochemical; settings: read-out: % enzyme activity, 1 μM; Run 1, Run 2
MARK4 = target: T3, MARK4 (Homo sapiens, UniProt Q96L34); assay: biochemical; settings: read-out: % enzyme activity, 1 μM; Run 1, Run 2
T3 sequence (Q96L34 1-752): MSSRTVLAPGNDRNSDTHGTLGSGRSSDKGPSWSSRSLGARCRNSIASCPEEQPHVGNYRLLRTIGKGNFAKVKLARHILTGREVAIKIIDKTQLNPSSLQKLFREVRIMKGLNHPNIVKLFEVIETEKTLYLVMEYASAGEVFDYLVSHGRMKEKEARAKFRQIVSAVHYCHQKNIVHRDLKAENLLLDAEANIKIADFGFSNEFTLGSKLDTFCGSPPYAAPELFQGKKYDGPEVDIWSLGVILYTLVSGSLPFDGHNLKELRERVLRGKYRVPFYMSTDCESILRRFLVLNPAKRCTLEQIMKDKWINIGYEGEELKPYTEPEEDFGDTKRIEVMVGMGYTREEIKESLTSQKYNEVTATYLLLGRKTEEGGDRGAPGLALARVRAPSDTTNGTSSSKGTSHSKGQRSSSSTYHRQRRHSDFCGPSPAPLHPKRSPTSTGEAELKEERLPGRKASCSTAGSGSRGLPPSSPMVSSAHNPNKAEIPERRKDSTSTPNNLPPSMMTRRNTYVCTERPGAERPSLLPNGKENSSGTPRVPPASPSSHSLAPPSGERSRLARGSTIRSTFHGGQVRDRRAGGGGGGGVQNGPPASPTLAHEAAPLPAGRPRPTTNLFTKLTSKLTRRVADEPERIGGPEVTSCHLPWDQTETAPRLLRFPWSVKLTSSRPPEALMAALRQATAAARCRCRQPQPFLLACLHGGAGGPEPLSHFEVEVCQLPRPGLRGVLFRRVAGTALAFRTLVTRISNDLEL

NEK4 = NEK4 (Homo sapiens, UniProt P51957); assay: biochemical; settings: read-out: % enzyme activity, 1 μM; Run 1, Run 2
PDGFRb = PDGFRb (Homo sapiens, UniProt P09619); assay: biochemical; settings: read-out: % enzyme activity, 1 μM; Run 1, Run 2
SGK2 = SGK2 (Homo sapiens, UniProt Q9HBY8); assay: biochemical; settings: read-out: % enzyme activity, 1 μM; Run 1, Run 2
Sequence of SGK2 (Q9HBY8 whole entry): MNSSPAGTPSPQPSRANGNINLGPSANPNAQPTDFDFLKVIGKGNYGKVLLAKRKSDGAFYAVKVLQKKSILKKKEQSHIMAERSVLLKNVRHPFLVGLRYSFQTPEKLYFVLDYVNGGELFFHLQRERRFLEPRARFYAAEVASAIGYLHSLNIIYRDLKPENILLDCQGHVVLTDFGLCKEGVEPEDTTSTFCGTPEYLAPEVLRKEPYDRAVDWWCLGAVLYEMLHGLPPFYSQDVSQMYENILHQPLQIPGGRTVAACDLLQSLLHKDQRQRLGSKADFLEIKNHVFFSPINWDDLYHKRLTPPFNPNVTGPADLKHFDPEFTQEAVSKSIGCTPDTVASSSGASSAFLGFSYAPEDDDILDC

Sequence of MNK1 (Q9BUB5 whole entry): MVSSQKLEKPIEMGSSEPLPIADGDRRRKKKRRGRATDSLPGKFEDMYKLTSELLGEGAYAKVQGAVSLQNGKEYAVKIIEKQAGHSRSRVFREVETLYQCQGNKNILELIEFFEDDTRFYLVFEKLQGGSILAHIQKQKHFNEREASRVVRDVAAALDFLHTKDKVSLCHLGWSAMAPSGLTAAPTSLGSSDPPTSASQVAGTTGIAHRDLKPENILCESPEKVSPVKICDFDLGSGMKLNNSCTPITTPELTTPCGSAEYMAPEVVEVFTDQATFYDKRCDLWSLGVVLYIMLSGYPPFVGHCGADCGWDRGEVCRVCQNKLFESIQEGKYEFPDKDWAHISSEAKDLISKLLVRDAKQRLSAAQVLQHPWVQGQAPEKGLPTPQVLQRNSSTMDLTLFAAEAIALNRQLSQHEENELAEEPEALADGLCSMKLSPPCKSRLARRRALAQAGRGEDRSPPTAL
Sequence of CDK6/cyclin D3 (Q00534 whole entry): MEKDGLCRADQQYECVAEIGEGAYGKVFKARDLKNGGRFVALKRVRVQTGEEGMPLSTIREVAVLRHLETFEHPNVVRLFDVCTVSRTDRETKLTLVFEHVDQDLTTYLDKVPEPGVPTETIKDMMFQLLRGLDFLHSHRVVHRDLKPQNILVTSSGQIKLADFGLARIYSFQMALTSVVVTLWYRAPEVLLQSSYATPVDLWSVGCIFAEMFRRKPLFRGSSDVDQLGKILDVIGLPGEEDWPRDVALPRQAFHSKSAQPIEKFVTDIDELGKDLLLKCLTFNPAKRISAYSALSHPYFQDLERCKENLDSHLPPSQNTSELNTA
Sequence of CDK6/cyclin D3 (P30281 whole entry partner): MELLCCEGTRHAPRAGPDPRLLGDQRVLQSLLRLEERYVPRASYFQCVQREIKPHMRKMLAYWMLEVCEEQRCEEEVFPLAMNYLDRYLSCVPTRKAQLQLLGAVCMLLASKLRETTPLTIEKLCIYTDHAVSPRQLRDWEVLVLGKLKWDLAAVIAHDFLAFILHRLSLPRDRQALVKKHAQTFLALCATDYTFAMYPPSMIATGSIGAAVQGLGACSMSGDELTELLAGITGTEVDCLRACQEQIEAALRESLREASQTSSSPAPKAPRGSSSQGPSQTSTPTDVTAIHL
Sequence of LIMK2 (P53671 whole entry): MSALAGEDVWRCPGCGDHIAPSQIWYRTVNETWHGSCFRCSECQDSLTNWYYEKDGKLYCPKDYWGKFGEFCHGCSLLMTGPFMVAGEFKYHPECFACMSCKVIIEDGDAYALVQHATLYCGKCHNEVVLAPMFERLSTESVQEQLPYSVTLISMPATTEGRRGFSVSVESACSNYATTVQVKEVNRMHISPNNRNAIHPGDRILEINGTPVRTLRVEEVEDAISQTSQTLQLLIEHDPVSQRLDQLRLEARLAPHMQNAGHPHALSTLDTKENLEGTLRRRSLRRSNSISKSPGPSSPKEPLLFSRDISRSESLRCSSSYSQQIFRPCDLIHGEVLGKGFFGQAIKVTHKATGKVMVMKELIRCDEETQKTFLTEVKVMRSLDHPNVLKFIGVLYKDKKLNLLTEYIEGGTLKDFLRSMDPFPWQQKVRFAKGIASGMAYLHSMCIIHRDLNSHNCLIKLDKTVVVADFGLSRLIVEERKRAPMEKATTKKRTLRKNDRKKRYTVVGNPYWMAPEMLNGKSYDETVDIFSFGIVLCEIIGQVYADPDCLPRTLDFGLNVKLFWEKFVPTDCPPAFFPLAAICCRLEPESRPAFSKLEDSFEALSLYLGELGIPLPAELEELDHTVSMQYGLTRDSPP
Sequence of FES/FPS (P07332 whole entry): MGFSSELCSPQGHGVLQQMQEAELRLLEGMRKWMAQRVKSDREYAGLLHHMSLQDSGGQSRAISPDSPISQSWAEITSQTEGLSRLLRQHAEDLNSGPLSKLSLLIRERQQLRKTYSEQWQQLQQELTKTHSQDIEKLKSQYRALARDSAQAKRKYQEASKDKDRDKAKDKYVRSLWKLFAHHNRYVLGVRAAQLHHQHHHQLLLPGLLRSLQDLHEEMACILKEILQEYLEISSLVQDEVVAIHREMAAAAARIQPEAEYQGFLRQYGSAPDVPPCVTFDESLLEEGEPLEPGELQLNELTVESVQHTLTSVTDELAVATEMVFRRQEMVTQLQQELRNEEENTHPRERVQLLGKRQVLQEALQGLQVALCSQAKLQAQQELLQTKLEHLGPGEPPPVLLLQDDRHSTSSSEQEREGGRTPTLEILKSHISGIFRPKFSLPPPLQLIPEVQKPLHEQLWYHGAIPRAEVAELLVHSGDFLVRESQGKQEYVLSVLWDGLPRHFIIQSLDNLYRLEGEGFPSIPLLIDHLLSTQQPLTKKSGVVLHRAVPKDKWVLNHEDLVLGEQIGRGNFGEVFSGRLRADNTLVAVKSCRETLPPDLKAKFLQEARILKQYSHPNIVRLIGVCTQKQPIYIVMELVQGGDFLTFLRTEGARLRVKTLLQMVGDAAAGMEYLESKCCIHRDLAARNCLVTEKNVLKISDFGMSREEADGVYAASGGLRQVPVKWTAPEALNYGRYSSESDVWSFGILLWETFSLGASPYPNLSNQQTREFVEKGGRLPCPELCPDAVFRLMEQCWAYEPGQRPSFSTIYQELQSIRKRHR
Sequence of STK38/NDR1 (Q15208 whole entry): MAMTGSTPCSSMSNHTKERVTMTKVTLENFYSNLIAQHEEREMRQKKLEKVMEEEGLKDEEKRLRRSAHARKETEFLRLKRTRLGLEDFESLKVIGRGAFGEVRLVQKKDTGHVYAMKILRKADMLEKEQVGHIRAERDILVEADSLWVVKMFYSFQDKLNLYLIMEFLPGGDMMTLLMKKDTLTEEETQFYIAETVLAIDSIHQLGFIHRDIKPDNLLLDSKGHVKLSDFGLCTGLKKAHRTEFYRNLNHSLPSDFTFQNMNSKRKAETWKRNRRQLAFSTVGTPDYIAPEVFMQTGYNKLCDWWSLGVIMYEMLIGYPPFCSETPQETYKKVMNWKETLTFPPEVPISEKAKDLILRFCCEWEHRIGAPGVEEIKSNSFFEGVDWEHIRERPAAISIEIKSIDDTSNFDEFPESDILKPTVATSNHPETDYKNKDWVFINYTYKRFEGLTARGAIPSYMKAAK
Sequence of MST4 (Q9P289 whole entry): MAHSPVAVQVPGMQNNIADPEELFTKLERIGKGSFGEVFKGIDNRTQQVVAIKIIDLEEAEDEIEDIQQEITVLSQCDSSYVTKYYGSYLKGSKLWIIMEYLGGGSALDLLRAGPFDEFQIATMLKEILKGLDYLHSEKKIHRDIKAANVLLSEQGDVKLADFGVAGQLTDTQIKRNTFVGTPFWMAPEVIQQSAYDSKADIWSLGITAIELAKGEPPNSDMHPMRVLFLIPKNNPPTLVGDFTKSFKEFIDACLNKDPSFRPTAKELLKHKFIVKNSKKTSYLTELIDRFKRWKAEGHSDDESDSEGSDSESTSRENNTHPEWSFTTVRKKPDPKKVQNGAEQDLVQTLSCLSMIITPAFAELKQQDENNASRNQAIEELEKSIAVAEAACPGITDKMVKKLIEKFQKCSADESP
Sequence of PDGFRb (P09619 33-1106): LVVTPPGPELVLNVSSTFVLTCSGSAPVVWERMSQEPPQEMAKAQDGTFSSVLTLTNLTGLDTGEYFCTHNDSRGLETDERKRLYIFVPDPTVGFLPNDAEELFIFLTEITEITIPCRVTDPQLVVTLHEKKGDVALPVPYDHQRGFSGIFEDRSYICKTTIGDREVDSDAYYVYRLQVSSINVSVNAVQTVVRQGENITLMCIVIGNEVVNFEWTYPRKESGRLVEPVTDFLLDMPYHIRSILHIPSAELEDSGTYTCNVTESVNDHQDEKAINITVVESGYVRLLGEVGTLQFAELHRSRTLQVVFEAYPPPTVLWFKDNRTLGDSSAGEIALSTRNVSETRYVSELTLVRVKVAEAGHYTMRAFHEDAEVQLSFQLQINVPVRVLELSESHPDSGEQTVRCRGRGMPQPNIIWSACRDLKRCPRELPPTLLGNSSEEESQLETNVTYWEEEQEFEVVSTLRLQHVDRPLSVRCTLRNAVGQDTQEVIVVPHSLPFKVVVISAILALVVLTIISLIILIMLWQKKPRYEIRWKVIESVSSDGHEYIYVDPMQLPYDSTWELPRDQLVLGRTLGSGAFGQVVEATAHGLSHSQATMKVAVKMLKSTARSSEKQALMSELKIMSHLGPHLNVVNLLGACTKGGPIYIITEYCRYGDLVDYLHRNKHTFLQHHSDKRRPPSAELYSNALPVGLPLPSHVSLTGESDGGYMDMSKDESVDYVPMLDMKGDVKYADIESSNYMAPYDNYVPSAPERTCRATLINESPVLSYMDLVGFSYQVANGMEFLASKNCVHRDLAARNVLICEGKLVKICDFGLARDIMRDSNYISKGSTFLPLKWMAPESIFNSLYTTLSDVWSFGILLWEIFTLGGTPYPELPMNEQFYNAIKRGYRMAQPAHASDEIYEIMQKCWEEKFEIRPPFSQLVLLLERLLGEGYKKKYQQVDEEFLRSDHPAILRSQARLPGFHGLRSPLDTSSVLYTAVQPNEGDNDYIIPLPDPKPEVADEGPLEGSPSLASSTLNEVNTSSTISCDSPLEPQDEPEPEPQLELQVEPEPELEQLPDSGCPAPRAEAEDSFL

Structure (SMILES)	% enzyme activity (CDK6/cyclin D3) [%]	% enzyme activity (LIMK2) [%]	% enzyme activity (MNK1) [%]	% enzyme activity (MST4) [%]	% enzyme activity (PKG1a) [%]	% enzyme activity (PRKX) [%]	% enzyme activity (STK38/NDR1) [%]	remaining activity at 1 µM (CAMK1a) [%]	remaining activity at 1 µM (CLK1) [%]	remaining activity at 1 µM (FES/FPS) [%]	remaining activity at 1 µM (MARK4) [%]	remaining activity at 1 µM (NEK4) [%]	remaining activity at 1 µM (PDGFRb) [%]	remaining activity at 1 µM (SGK2) [%]
COc1cc(-c2cncc(-c3ccc(N4CCN(C)CC4)cc3)c2C)cc(F)c1C(N)=O [Compound 26a, 2-Fluoro-6-methoxy-4-(4-methyl-5-(4-(4-methylpiperazin-1-yl)phenyl)pyridin-3-yl)benzamide]	86.25	99.63	50.34	85.32	97.81	99.24	90.38	94.9	97.8	99.9	83.7	98.5	77.3	102
COc1cc(-c2cncc(-c3ccc(N4C[C@@H](C)N(C)[C@@H](C)C4)cc3)c2C)cc(F)c1C(N)=O [Compound 26c, 2-Fluoro-6-methoxy-4-(4-methyl-5-(4-((3R,5S)-3,4,5-trimethylpiperazin-1-yl)phenyl)pyridin-3-yl)benzamide]	102.19	95.75	70.81	90.97	101.45	90.55	93.15	97.5	88	98.7	96.8	98	92.1	103
